According to patent US20230173047A1, “CITRULLINATED NUCLEOPHOSMIN PEPTIDES AS CANCER VACCINES” (SCANCELL LIMITED, priority 2020, published 2023):
Where a SMILES comes first, the peptide text is derived from it. [ ]: non-standard residue; d: D form. Cit = NC(=O)NCCC[C@H](N)C(=O)O

Key:
Type in all cases: in vivo, mouse
[1] = system: T cell response in HLA-DR4 and HHDII/DP4 transgenic mice; experiment: Screening of citrullinated NPM peptides for T cell (IFNy) responses in HLA-DR4 and HHDII/DP4 transgenic mice; settings: for T cell response: citrullinated NPM peptides, HLA-DR4 and HHDII/DP4 transgenic mice, IFNy ELISpot
Procedure: (§1) HLA-DR4 mice (Taconic, USA) and the HHDII/HLA-DP4 transgenic strain of mouse as described in patent WO2013/017545 A1 (EMMA repository, France) were used, aged between 8 and 12 weeks, and cared for by the staff at Nottingham Trent University. All work was carried out under a Home Office project licence. Peptides were dissolved in 10% dimethylformamide to 1 mg/mL and then emulsified (a series of dilutions) with the adjuvant CpG and MPLA 6 µg/mouse of each (Invivogen, UK). Peptides (25 µg/mouse) were injected subcutaneously at the base of the tail.
(§2) ELISpot assays were performed using murine IFNy capture and detection reagents according to the manufacturer’s instructions (Mabtech, Sweden). In brief, anti-IFNʏ antibody was coated onto wells of a 96-well Immobilin-P plate. Synthetic peptides (at a variety of concentrations) and 5×10^5 per well splenocytes were added to the wells of the plate in triplicate. LPS at 5 µg/mL was used as a positive control. Peptide pulsed target cells were added where relevant at 5×10^4 per well in triplicate and plates incubated for 40 hours at 37° C. After incubation, captured IFNy was detected by a biotinylated anti-IFNʏ antibody and developed with a streptavidin alkaline phosphatase and chromogenic substrate. […] For blocking studies, anti-CD4 blocking antibody (RPA-T4) and anti-CD8 blocking antibody (2.43) from Bioxcell were used at 20 µg/mL. Spots were analysed and counted using an automated plate reader (Cellular Technologies Ltd).
T cell responses to tumour associated epitopes are often weak or non-existent due to tolerance and T cell deletion within the thymus. The citrullinated NPM peptides were screened in HLA-DR4 and HHDII/DP4 transgenic mice for their ability to stimulate IFNy responses. Every peptide containing an arginine was selected and the arginine residue was replaced with citrulline (cit).
(§3) Screening was performed to identify potential citrullinated NPM epitopes that could generate an immune response in mice. Mice were immunised with pools of 4-6 human citrullinated peptides. […] Each pool was administered subcutaneously as a single immunisation given once a week for three weeks. Each peptide pool contained 25 µg of each peptide in combination with CpG/MPLA as an adjuvant. Mice were culled 7 days after the third immunisation, the immune response to each peptide within the immunising pool were assessed by ex vivo IFNy ELISpot (FIG. 2). We have previously shown that citrullinated peptides can induce responses in the transgenic DR4 mouse strain. Given that different mouse strains have different MHC repertoires, two different transgenic strains (DR4 and DP4) were used for screening.

[2] = system: splenocytes of HHDII/DP4 transgenic mice; experiment: Ex vivo IFNy ELISpot on splenocytes after peptide immunisation, HHDII/DP4 mice; settings: for IFNy immune response to peptide: HHDII/DP4 mice immunised with peptide pools, 25 µg each + CpG/MPLA, weekly x3, vs media only
Procedure: as §1, §2, §3
The core epitope was confirmed by immunising mice once weekly for three weeks with 25 µg of the NPM 261-280 cit or 266-285 cit peptide. HHDII/DP4 mice were immunised with the individual peptides whereas HLA-DR4 mice were immunised with a combination of NPM 261-280 cit and 266-285 cit, all given with CpG/MPLA. Mice were culled 7 days after the third immunisation.
To determine if the immune response to the NPM 266-285 peptide is specific to the citrullinated peptide and not the wild type (wt) version, mice were immunised with NPM 266-285 cit or NPM 266-285 wt peptides. HHDII/DP4 mice received 25 µg peptide (NPM 266-285 cit or NPM 266-285 wt) subcutaneously once a week for three weeks. Mice were culled 7 days after the third immunisation, the immune response to each peptide was assessed by ex vivo ELISpot (FIGS. 4A and 4B). […] In contrast, strong IFNy responses were detected in mice immunised with NPM 266-285 cit, these responses were significant when compared to the response to the NPM 266-285 wt peptide (p=0.0002) and the control (p=<0.0001). […]

[3] = system: B16 HHDII/iDP4 tumour cells; settings: immunised tumour bearing mice
Procedure: as §1
For tumour challenge experiments, mice were challenged with 1×10^5 B16 HHDII/iDP4, B16F1HHDIIMHCIIKO or B16 HHDII/PAD2KOcDP4 cells subcutaneously on the right flank 3 days before primary immunisation (unless stated otherwise) and then immunised as described above. Tumour growth was monitored at 3-4 days intervals and mice humanely euthanised once tumour reached ≥10 mm in diameter.
The inventors had already established by Western blotting that the melanoma B16F1 cell lines constitutively express NPM and in vitro citrullination of NPM generates citrulline at position 277 (FIG. 5A and B). Next, the anti-tumour effect of NPM 266-285 cit peptide immunisation was assessed in vivo. The effect of immunisation with NPM 266-285 (cit and wt) on the growth of the mouse B16 melanoma cell line transfected with IFNy inducible human DP4 (iDP4) was assessed. […]

[4] = system: splenocytes of HLA-DR4 transgenic mice; experiment: Ex vivo IFNy ELISpot on splenocytes after peptide immunisation, HLA-DR4 mice
Procedure: as §1
ELISpot assays were performed using murine IFNy capture and detection reagents according to the manufacturer’s instructions (Mabtech, Sweden). In brief, anti-IFNʏ antibody was coated onto wells of a 96-well Immobilin-P plate. […] After incubation, captured IFNy was detected by a biotinylated anti-IFNʏ antibody and developed with a streptavidin alkaline phosphatase and chromogenic substrate. […] Spots were analysed and counted using an automated plate reader (Cellular Technologies Ltd).
Screening was performed to identify potential citrullinated NPM epitopes that could generate an immune response in mice. […] Mice were culled 7 days after the third immunisation, the immune response to each peptide within the immunising pool were assessed by ex vivo IFNy ELISpot (FIG. 2). […]

Compound | T cell response [1] | other results
PPVVL-cit-LKCGSGPVHISGQH [96-115] | No | 
EDVKLLSISGK-cit-SAPGGGSK [131-150] | No | 
DENEHQLSL-cit-TVSLGAGAKD [36-55] | No | 
AEEKAPVKKSI-cit-DTPAKNAQ [186-205] | No | IFNy immune response to peptide [2]: failed to induce an immune response
CC[C@H](C)[C@H](NC(=O)[C@H](C)NC(=O)[C@H](CCC(=O)O)NC(=O)[C@H](CCC(N)=O)NC(=O)[C@H](CC(=O)O)NC(=O)[C@@H](NC(=O)[C@H](CCSC)NC(=O)[C@H](CCCNC(N)=O)NC(=O)[C@H](Cc1ccccc1)NC(=O)[C@H](CS)NC(=O)[C@H](CC(N)=O)NC(=O)[C@H](CCCCN)NC(=O)[C@@H](NC(=O)[C@H](Cc1ccc(O)cc1)NC(=O)[C@H](CC(N)=O)NC(=O)[C@@H](NC(=O)[C@H](Cc1ccccc1)NC(=O)[C@H](CCCCN)NC(=O)[C@H](C)N)[C@@H](C)CC)C(C)C)[C@@H](C)O)C(=O)N[C@@H](CCC(N)=O)C(=O)O [NPM 266-285 cit, AKFINYVKNCF-cit-MTDQEAIQ] (H-AKFINYVKNCF[Cit]MTDQEAIQ-OH) |  | Associated toxicity [3]: no associated toxicity
EDEEEEDVKLLSISGK-cit-SAP [126-145] | No | 
AKFINYVKNCF-cit-MTD [NPM 266-280 cit] | Yes | Response to core peptide compared with NPM 261-280 cit or NPM 266-285 cit ([2]; HHDII/DP4 transgenic mice, IFNy ELISpot): no significant difference; Response to core peptide compared with NPM 266-285 cit [4]: significant difference
YVKNCF-cit-MTDQEAI QDLWQW [271-290] | No | 
LPKVEAKFINYVKNCF-cit-MTD [NPM 261-280 cit] | Yes | Frequency of IFNy responses ([1]; HHDII/DP4 and HLA-DR4 mice): high frequency IFNy responses; IFNy immune response to peptide [2]: significant immune responses; IFNy response to peptide ([2]; core epitope study, HHDII/DP4 mice immunised with individual peptide 25 µg weekly x3 + CpG/MPLA): Significant IFNʏ responses
FKVDNDENEHQLSL-cit-TVSLG [31-50] | No | 
DMDMSPL-cit-PQNYLFGCELKA [6-25] | No | 
QLSL-cit-TVSLGAGAKDELHIV [41-60] | No | 
KSNQNGKDSKPSSTP-cit-SKGQ [206-225] | No | 
PVKKSI-cit-DTPAKNAQKSNQN [191-210] | No | IFNy immune response to peptide [2]: failed to induce an immune response
F-cit-MTDQEAIQDLWQWcitKSL [276-294] | No | 
CC[C@H](C)[C@H](NC(=O)[C@H](C)NC(=O)[C@H](CCC(=O)O)NC(=O)[C@H](CCC(N)=O)NC(=O)[C@H](CC(=O)O)NC(=O)[C@@H](NC(=O)[C@H](CCSC)NC(=O)[C@H](CCCNC(=N)N)NC(=O)[C@H](Cc1ccccc1)NC(=O)[C@H](CS)NC(=O)[C@H](CC(N)=O)NC(=O)[C@H](CCCCN)NC(=O)[C@@H](NC(=O)[C@H](Cc1ccc(O)cc1)NC(=O)[C@H](CC(N)=O)NC(=O)[C@@H](NC(=O)[C@H](Cc1ccccc1)NC(=O)[C@H](CCCCN)NC(=O)[C@H](C)N)[C@@H](C)CC)C(C)C)[C@@H](C)O)C(=O)N[C@@H](CCC(N)=O)C(=O)O [NPM 266-285 wt, reference compound] (H-AKFINYVKNCFRMTDQEAIQ-OH) |  | Associated toxicity [3]: no associated toxicity
FDDEEAEEKAPVKKSI-cit-DTP [181-200] | No | 
GKDSKPSSTP-cit-SKGQESFKK [211-230] | No | 
LSISGK-cit-SAPGGGSKVPQKK [136-155] | No | 
PSSTP-cit-SKGQESFKKQEKTP [216-235] | No | 
TVSLGGFEITPPVVL-cit-LKCG [86-105] | No | 
MEDSMDMDMSPL-cit-PQNYLFG [1-20] | No | 
GFETPPVVL-cit-LKCGSGPVH [91-110] | No | 
